Non-standard residues stand in square brackets, D forms with d. Residues, ends and D or L forms follow the SMILES beside them. *: point of attachment. 1Nal = N[C@@H](Cc1cccc2ccccc12)C(=O)O; d2Nal = N[C@H](Cc1ccc2ccccc2c1)C(=O)O; Benzoyl(4-F) = O=C(c1ccc(F)cc1)*; d2Thi = N[C@H](Cc1cccs1)C(=O)O; Propanoyl(2-F) = CC(F)C(=O)*; Dap = NC[C@H](N)C(=O)O; Aib = CC(C)(N)C(=O)O; Inp = O=C(O)C1CCNCC1
Key:
[1] = biological target: T1, GHS-R1a (Homo sapiens, UniProt Q92847); assay: Receptor-ligand competitive binding assay, HEK293/GHS-R1a cells with [125I]ghrelin as radioligand
T1 construct: expressed in transfected cells; host or cells: HEK293
Experimental: Receptor-Ligand Binding Assay
Competitive binding assays were run at the Lawson Health Research Institute at St. Joseph's Health Care in London. […] To begin with, a fresh solution of binding buffer (50 ml) was made up by adding HEPES (0.3 g, 25 mM), MgCl2 (0.051 g, 5 mM), CaCl2 (7.4×10^−3 g, 1 mM), EDTA (0.015 g, 2.5 mM) and BSA (0.2 g, 0.4%) to distilled H2O. The resultant solution was mixed over gentle heat. The pH was then adjusted to 7.4 and the solution filtered. Two miniature complete protease inhibitor tablets were then added and the final buffer solution kept on ice.
After the buffer had been made, assay tubes were labelled and kept on ice during the setup. To assay tubes 1-21, 25-27 and 28-30 was added binding buffer (200 μl, 230 μl and 300 μl respectively). No buffer was added to tubes 22-24. An aliquot of frozen cells was thawed to room temperature, centrifuged (3000×g, 10 mins, room temperature) and the subsequent cell pellet re-suspended in binding buffer (2 ml) and placed on ice. Cells (50 μl) were then added to assay tubes 1-21 and 25-27. Cold peptide was then prepared. This was carried out by adding stock peptide (20 μl) to binding buffer (180 μl) to make a peptide solution of 10^−4M concentration. Binding buffer (180 μl) was then added to assay tubes labelled 10^−5 to 10^−11. A series of dilutions was then made in order to acquire 10^−5 to 10^−11M concentrations. Cold peptide (30 μl) was then added to the corresponding assay tubes in triplicate.
All assay tubes were then vortexed, capped and immediately agitated (550 rpm, 20 mins, 37° C.). After 20 minutes, tubes 1-21 and 25-27 were spun in a large centrifuge (2800 rpm, 2 mins, 4° C.). The solution in all of the tubes was then transferred to Eppendorf tubes (0.5 ml), further binding buffer added (200 μl), the solutions mixed by pipetting and transferred to 0.5 ml tubes. The tubes were then spun again (13 000×g, 5 mins, 4° C.) and placed on ice. The supernatant was removed and the cell pellet rinsed with ice-cold Tris-HCl (200 μl, 50 mM, pH 7.4) and the tubes mixed by inversion. Tubes were spun a final time (13,000×g, 5 mins, 4° C.), cooled on ice and supernatant removed. The tubes were then placed in 12×75 mm assay tubes and counted using a gamma counter (see protocol 3). The binding assay may be summarized as follows:
Competitive binding assays were run on the compounds of Table 2 as described in Example 1. The formulas of the compounds of Table 2 are illustrated in FIGS. 49 and 50.

[2] = biological target: Human recombinant ghrelin receptor (Homo sapiens, UniProt Q92847); assay: Calcium flux dose-response assay (FLIPR TETRA, EMD Millipore GPCRProfiler); assay type: cell-based; settings: for EC50 value compared with ghrelin: FIGS. 51 and 52, Example 3
Experimental: Another in vitro assay performed on the 4-fluorobenzoyl agonist [1-Nal^4,Lys^5(4-FB)]G-7039 and the [Lys^5(2-FP)]G-7039 agonist was a calcium flux dose-response assay. […] In this particular case, the biological effect of the peptidomimetic [1-Nal^4,Lys^5(4-FB)]G-7039 and the peptidomimetic [Lys^5(2-FP)]G-7039 is the release of intracellular calcium ions, a process which is detected by fluorescence using a […] instrument.
If the compound remained soluble 15 minutes after addition, samples were shipped to the EMD Millipore Corporation (15 Research Park Drive, St. Charles, Mo. 63304, USA). […] The agonist assay was performed for a total of 180 seconds. Each assay and assay concentration was performed in duplicate. The data acquired is presented in FIG. 51 ([1-Nal^4,Lys^5(4-FB)]G-7039) and FIG. 52 (Lys^5(2-FP)]G-7039).

[3] = system: GH release; settings: Elias et al., Endocrinology 1995, read-out: EC50, reported half-maximal effective concentration; cited from earlier work

T1 sequence (Q92847 whole entry): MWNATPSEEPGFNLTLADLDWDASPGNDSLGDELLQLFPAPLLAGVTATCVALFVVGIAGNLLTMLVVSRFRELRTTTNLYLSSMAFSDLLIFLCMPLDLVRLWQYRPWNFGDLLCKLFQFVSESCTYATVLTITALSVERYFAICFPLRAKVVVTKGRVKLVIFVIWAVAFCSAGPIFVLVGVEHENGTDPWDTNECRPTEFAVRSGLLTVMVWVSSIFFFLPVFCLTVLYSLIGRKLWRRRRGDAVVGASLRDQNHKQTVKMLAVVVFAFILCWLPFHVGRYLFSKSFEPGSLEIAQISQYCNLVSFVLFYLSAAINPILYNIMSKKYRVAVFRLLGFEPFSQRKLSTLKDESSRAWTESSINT
Human recombinant ghrelin receptor, sequence (Q92847 whole entry): as above

IC50 [1] [nM] | SMILES | other results
60.3 | CC(F)C(=O)NCCCC[C@H](NC(=O)[C@H](CO)NC(=O)[C@@H](Cc1ccc2ccccc2c1)NC(=O)[C@@H](Cc1ccc2ccccc2c1)NC(=O)C1CCNCC1)C(N)=O (stereo partly drawn) [TL-MF-2-2FP, H-Inp-(D-2-Nal)2-Ser-Lys(2-FP)-NH2] (H-[Inp][d2Nal][d2Nal]SK(Propanoyl(2-F))-NH2) | –
62.9 | CC(F)C(=O)NCCCC[C@H](NC(=O)[C@H](Cc1ccccc1)NC(=O)[C@H](CO)NC(=O)[C@@H](Cc1ccc2ccccc2c1)NC(=O)[C@@H](Cc1ccc2ccccc2c1)NC(=O)C1CCNCC1)C(N)=O (stereo partly drawn) [TL-MF-5-2FP, H-Inp-(D-2-Nal)2-Ser-Phe-Lys(2-FP)-NH2] (H-[Inp][d2Nal][d2Nal]SFK(Propanoyl(2-F))-NH2) | –
4.35 | CC(F)C(=O)NCCCC[C@H](NC(=O)[C@H](CO)NC(=O)[C@H](Cc1ccccc1)NC(=O)[C@@H](Cc1ccc2ccccc2c1)NC(=O)[C@@H](Cc1ccc2ccccc2c1)NC(=O)C1CCNCC1)C(N)=O (stereo partly drawn) [TL-MF-4-2FP, H-Inp-(D-2-Nal)2-Phe-Ser-Lys(2-FP)-NH2] (H-[Inp][d2Nal][d2Nal]FSK(Propanoyl(2-F))-NH2) | –
161 | CC(C)(N)C(=O)N[C@@H](Cc1c[nH]cn1)C(=O)N[C@H](Cc1ccc2ccccc2c1)C(=O)N[C@H](Cc1cccs1)C(=O)N[C@@H](CCCCNC(=O)c1ccc(F)cc1)C(N)=O [Thi-4-FB-Ipamorelin, H-Aib-His-D-2-Nal-D-2-Thi-Lys(4-FB)-NH2] (H-[Aib]H[d2Nal][d2Thi]K(Benzoyl(4-F))-NH2) | –
68.8 | NC(=O)[C@H](CCCCNC(=O)c1ccc(F)cc1)NC(=O)[C@H](Cc1cccc2ccccc12)NC(=O)[C@@H](Cc1ccc2ccccc2c1)NC(=O)[C@@H](Cc1ccc2ccccc2c1)NC(=O)C1CCNCC1 [MMF-01-115-H, H-Inp-D-2-Nal-D-2-Nal-1-Nal-Lys(4-FB)-NH2] (H-[Inp][d2Nal][d2Nal][1Nal]K(Benzoyl(4-F))-NH2) | EC50 value compared with ghrelin [2]: below that of ghrelin; EC50 ([2]; chem-1 cells, Fluo-8 NW dye, duplicate, read-out: EC50, intracellular Ca2+ release): 1.1 nM
1920 | NC(=O)[C@H](CCCCNC(=O)c1ccc(F)cc1)NC(=O)[C@@H](Cc1ccc2ccccc2c1)NC(=O)[C@@H](Cc1ccc2ccccc2c1)NC(=O)[C@H](Cc1c[nH]cn1)NC(=O)C1CCNCC1 [MMF-01-140-H, H-Inp-His-D-2-Nal-D-2-Nal-Lys(4-FB)-NH2] (H-[Inp]H[d2Nal][d2Nal]K(Benzoyl(4-F))-NH2) | –
27.6 | NCCCC[C@H](NC(=O)[C@H](Cc1cccc2ccccc12)NC(=O)[C@@H](Cc1ccc2ccccc2c1)NC(=O)[C@@H](Cc1ccc2ccccc2c1)NC(=O)C1CCNCC1)C(N)=O [MMF-01-113-G, H-Inp-D-2-Nal-D-2-Nal-1-Nal-Lys-NH2] (H-[Inp][d2Nal][d2Nal][1Nal]K-NH2) | –
0.283 | CC(F)C(=O)NCCCC[C@H](NC(=O)[C@H](Cc1ccc(O)cc1)NC(=O)[C@@H](Cc1ccc2ccccc2c1)NC(=O)[C@@H](Cc1ccc2ccccc2c1)NC(=O)C1CCNCC1)C(N)=O (stereo partly drawn) [TL-MF-3-2FP, H-Inp-D-2-Nal-D-2-Nal-Tyr-Lys(2-FP)-NH2] (H-[Inp][d2Nal][d2Nal]YK(Propanoyl(2-F))-NH2) | –

More lines, now with the values behind:

SMILES | IC50 [1] [nM] | other results
NC(=O)[C@H](CCCCNC(=O)c1ccc(F)cc1)NC(=O)[C@H](Cc1ccccc1)NC(=O)[C@@H](Cc1ccc2ccccc2c1)NC(=O)[C@@H](Cc1ccc2ccccc2c1)NC(=O)C1CCNCC1 [Compound 4-FB-G-7039, H-Inp-D-2-Nal-D-2-Nal-Phe-Lys(4-FB)-NH2] (H-[Inp][d2Nal][d2Nal]FK(Benzoyl(4-F))-NH2) | 242 | –
CC(C)(N)C(=O)N[C@@H](Cc1c[nH]cn1)C(=O)N[C@H](Cc1ccc2ccccc2c1)C(=O)N[C@H](Cc1ccccc1)C(=O)N[C@@H](CCCCNC(=O)c1ccc(F)cc1)C(N)=O [4-FB-Ipamorelin, H-Aib-His-D-2-Nal-D-Phe-Lys(4-FB)-NH2] (H-[Aib]H[d2Nal][dF]K(Benzoyl(4-F))-NH2) | 170 | –
CC(F)C(=O)NCCCC[C@H](NC(=O)[C@H](Cc1ccccc1)NC(=O)[C@@H](Cc1ccc2ccccc2c1)NC(=O)[C@@H](Cc1ccc2ccccc2c1)NC(=O)C1CCNCC1)C(N)=O (stereo partly drawn) [Compound 2-FP-G-7039, H-Inp-D-2-Nal-D-2-Nal-Phe-Lys(2-FP)-NH2] (H-[Inp][d2Nal][d2Nal]FK(Propanoyl(2-F))-NH2) | – | EC50 value compared with ghrelin [2]: below that of ghrelin
C[C@H](NC(=O)[C@@H](Cc1c[nH]c2ccccc12)NC(=O)[C@@H](N)Cc1c[nH]cn1)C(=O)N[C@@H](Cc1c[nH]c2ccccc12)C(=O)N[C@H](Cc1ccccc1)C(=O)N[C@@H](CCCCNC(=O)c1ccc(F)cc1)C(N)=O [Compound 4-FB-GHRP-6, H-His-D-Trp-Ala-Trp-D-Phe-Lys(4-FB)-NH2] (H-H[dW]AW[dF]K(Benzoyl(4-F))-NH2) | 384 | –
NCCCC[C@H](NC(=O)[C@H](Cc1ccccc1)NC(=O)[C@@H](Cc1ccc2ccccc2c1)NC(=O)[C@@H](Cc1ccc2ccccc2c1)NC(=O)C1CCNCC1)C(N)=O [Compound G-7039, H-Inp-D-2-Nal-D-2-Nal-Phe-Lys-NH2, reference compound] (H-[Inp][d2Nal][d2Nal]FK-NH2) | 5.21 | EC50 [3]: 0.18 nM
NC(=O)[C@H](CCCCNC(=O)c1ccc(F)cc1)NC(=O)[C@@H](Cc1ccccc1)NC(=O)[C@@H](Cc1ccc2ccccc2c1)NC(=O)[C@H](Cc1c[nH]cn1)NC(=O)C1CCNCC1 [Inp-4-FB-Ipamorelin, H-Inp-His-D-2-Nal-D-Phe-Lys(4-FB)-NH2] (H-[Inp]H[d2Nal][dF]K(Benzoyl(4-F))-NH2) | 688 | –
C[C@H](N)C(=O)N[C@@H](Cc1c[nH]cn1)C(=O)N[C@H](Cc1ccc2ccccc2c1)C(=O)N[C@@H](C)C(=O)N[C@@H](Cc1c[nH]c2ccccc12)C(=O)N[C@H](Cc1ccccc1)C(=O)N[C@@H](CCCCN)C(N)=O [GHRP-1, H-Ala-His-D-2-Nal-Ala-Trp-D-Phe-Lys-NH2, reference compound] (H-AH[d2Nal]AW[dF]K-NH2) | 181 | –
CC(C)(N)C(=O)N[C@@H](Cc1c[nH]cn1)C(=O)N[C@H](Cc1ccc2ccccc2c1)C(=O)N[C@H](Cc1ccccc1)C(=O)N[C@@H](CCCCN)C(N)=O [Ipamorelin, H-Aib-His-D-2-Nal-D-Phe-Lys-NH2, reference compound] (H-[Aib]H[d2Nal][dF]K-NH2) | 483 | –
C[C@H](NC(=O)[C@@H](Cc1ccc2ccccc2c1)NC(=O)[C@@H](C)N)C(=O)N[C@@H](Cc1c[nH]c2ccccc12)C(=O)N[C@H](Cc1ccccc1)C(=O)N[C@@H](CCCCN)C(N)=O [GHRP-2, H-D-Ala-D-2-Nal-Ala-Trp-D-Phe-Lys-NH2, reference compound] (H-[dA][d2Nal]AW[dF]K-NH2) | 449 | –
C[C@H](NC(=O)[C@@H](Cc1c[nH]c2ccccc12)NC(=O)[C@@H](N)Cc1c[nH]cn1)C(=O)N[C@@H](Cc1c[nH]c2ccccc12)C(=O)N[C@H](Cc1ccccc1)C(=O)N[C@@H](CNC(=O)c1ccc(F)cc1)C(N)=O [Dpr-4-FB-GHRP-6, H-His-D-Trp-Ala-Trp-D-Phe-Dpr(4-FB)-NH2] (H-H[dW]AW[dF][Dap](Benzoyl(4-F))-NH2) | 1060 | –
NC(=O)[C@H](CCCCNC(=O)c1ccc(F)cc1)NC(=O)[C@@H](Cc1cccs1)NC(=O)[C@@H](Cc1ccc2ccccc2c1)NC(=O)[C@H](Cc1c[nH]cn1)NC(=O)C1CCNCC1 [Inp-Thi-4-FB-Ipamorelin, H-Inp-His-D-2-Nal-D-2-Thi-Lys(4-FB)-NH2] (H-[Inp]H[d2Nal][d2Thi]K(Benzoyl(4-F))-NH2) | 1170 | –

Source: patent US10829516B2 (London Health Sciences Centre Research Inc., priority 2015, dated 2020)
